In publication PMC6443996, “1‐Hydroxy‐xanthine derivatives inhibit the human Caf1 nuclease and Caf1‐containing nuclease complexes via Mg^2+‐dependent binding” (FEBS Open Bio, 2019):

How the values were obtained:
Test in all cases: chemiluminescence-based AMP detection (AMP-Glo) deadenylase assay
Type in all cases: biochemical
[1] = target: T1, human pentameric central module (BTG2-Caf1/CNOT7-Ccr4/CNOT6L-CNOT1-CNOT9) of Ccr4-Not (Homo sapiens, UniProt Q9UIV1); conditions: read-out: IC50 (μM) vs pentameric Caf1-complex ^d
T1 construct: pentamer reconstituted from separately purified nuclease module and CNOT1 (MIF4G and DUF3819 domains, 1093-1595)-CNOT9 (ARM domain, 33-283) dimer; E. coli; with CCR4-NOT transcription complex subunit 6-like; Protein BTG2; CCR4-NOT transcription complex subunit 1; CCR4-NOT transcription complex subunit 9
T1 sequence (Q9UIV1 whole entry, other chains not shown, the tested form may be a part): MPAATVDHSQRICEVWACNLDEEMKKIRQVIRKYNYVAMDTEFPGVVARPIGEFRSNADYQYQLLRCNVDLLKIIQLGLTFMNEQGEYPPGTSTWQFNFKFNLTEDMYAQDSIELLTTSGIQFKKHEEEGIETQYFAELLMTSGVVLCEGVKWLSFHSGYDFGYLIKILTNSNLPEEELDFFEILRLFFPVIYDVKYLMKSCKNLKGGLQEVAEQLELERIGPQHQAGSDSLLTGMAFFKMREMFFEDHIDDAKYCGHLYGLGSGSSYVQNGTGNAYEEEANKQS
T1 sequence (P78543 whole entry partner, other chains not shown, the tested form may be a part): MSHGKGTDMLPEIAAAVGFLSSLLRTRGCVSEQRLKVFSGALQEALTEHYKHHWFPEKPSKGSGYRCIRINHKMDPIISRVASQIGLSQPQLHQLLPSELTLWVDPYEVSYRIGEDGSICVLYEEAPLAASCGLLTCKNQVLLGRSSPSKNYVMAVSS
T1 sequence (A5YKK6 1093-1595 partner, other chains not shown): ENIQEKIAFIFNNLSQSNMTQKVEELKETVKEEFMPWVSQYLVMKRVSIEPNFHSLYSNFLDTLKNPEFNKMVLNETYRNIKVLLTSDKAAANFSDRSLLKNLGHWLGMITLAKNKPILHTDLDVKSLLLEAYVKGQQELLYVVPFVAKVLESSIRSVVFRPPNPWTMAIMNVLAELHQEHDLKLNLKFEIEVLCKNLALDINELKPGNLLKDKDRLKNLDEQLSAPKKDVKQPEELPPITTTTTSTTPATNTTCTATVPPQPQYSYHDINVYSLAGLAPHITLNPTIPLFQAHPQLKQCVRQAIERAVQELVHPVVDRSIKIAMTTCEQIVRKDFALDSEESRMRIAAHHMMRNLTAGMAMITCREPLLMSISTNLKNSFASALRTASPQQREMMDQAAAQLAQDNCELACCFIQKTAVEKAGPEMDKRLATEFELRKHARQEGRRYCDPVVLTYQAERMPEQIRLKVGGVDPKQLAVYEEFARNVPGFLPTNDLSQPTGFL
T1 sequence (Q92600 33-283 partner, other chains not shown): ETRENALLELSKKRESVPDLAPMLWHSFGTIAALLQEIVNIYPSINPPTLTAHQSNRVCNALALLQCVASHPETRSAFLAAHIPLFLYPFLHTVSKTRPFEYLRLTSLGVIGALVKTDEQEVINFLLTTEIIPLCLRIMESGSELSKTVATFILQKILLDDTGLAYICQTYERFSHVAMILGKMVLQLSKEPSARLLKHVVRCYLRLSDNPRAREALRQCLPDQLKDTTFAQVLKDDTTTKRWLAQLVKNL

[2] = target: T2, trimeric human nuclease module (BTG2-Caf1/CNOT7-Ccr4/CNOT6L) (Homo sapiens, UniProt Q9UIV1); conditions: read-out: IC50 (μM) vs trimeric Caf1-complex ^c
T2 construct: trimeric complex co-expressed from pQE80L-BTG2 and pACYC-Duet1-Strep-CNOT6L-CNOT7 in E. coli; with CCR4-NOT transcription complex subunit 6-like; Protein BTG2
T2 sequence (Q9UIV1 whole entry, other chains not shown): as the sequence (Q9UIV1 whole entry, other chains not shown, the tested form may be a part) above
T2 sequence (P78543 whole entry partner, other chains not shown): as the sequence (P78543 whole entry partner, other chains not shown, the tested form may be a part) above

human Caf1/CNOT7 = target: T3, human Caf1/CNOT7 (Homo sapiens, UniProt Q9UIV1); conditions: read-out: IC50 (μM) vs Caf1 ^b
T3 construct: isolated recombinant wild-type Caf1 subunit, expressed and purified from Escherichia coli BL21(DE3)
T3 sequence (Q9UIV1 whole entry): as the sequence (Q9UIV1 whole entry, other chains not shown, the tested form may be a part) above
Description: chemiluminescence-based AMP detection (AMP-Glo) deadenylase assay on human Caf1/CNOT7

| Structure (SMILES) | IC50 [1] [µM] | IC50 [2] [µM] | IC50 (human Caf1/CNOT7) [µM] |
| --- | --- | --- | --- |
| O=c1[nH]c2ncn(Cc3ccccc3)c2c(=O)n1O [compound 1, 1-hydroxy-xanthine compound 1] | 10.8 ± 0.2 | 13.6 ± 0.6 | 12.7 ± 0.9 |
| CN(C)CCCn1c(=O)n(O)c(=O)c2c1ncn2CCc1ccccc1 [compound 5, 1-hydroxy-xanthine compound 5] | 0.98 ± 0.07 | 1 ± 0.2 | 0.79 ± 0.09 |
